Values after ≈ are worked out from the molar mass of the structure shown.
Each molecule was assayed against T1, purified recombinant Yck2 (Candida albicans, UniProt A0A1D8PKB4) (assay: HotSpot kinase assay). Settings: not given.
T1 construct: Yck2 residues 37-345 were PCR amplified from C. albicans genomic DNA; His6 (N); TEV protease site (N); made in house; host or cells: E. coli BL21(DE3)-Gold
Format: biochemical, C. albicans
Experimental: IC50s were determined using the in vitro HotSpot kinase assay (purified enzymes, ^33P-ATP, an appropriate substrate and 1 μM ATP). For enzyme inhibition assays, compounds were tested in range of ten concentrations from 10 uM to 0.0005 uM using purified recombinant Yck2. Reaction conditions were 1 uM ATP, one hour incubation with inhibitor, and kinase activity detected using 33-ATP phosphorylation of an appropriately selected peptide substrate.
Yck2 residues 37-345 were PCR amplified from C. albicans genomic DNA and subcloned into the vector pMCSG53, which codes for a N-terminal His6 tag, TEV protease site, followed by the Yck2 protein. E. coli BL21(DE3)-Gold competent cells were transformed with this plasmid and the Yck2 protein was purified using methodology previously described (Stogios et al., ACS Chem. Biol. 13, 1322-1332 (2018)).

T1 sequence (A0A1D8PKB4 entry or part of it): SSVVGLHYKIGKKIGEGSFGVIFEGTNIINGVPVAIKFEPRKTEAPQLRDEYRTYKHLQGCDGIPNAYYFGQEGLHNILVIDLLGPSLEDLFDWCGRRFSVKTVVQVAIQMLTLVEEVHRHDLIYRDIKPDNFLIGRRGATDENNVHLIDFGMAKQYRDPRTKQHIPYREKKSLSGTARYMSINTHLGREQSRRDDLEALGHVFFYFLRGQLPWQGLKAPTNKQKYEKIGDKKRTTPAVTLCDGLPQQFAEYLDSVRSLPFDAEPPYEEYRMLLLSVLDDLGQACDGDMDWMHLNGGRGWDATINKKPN

SMILES | IC50 [nM]
Nc1nccc(-c2c(-c3ccc(F)cc3)ncn2C2CCN(C[C@](O)(Cn3cncn3)c3ccc(F)cc3F)CC2)n1 (single isomer, unassigned) [Compound I-33] | 12.3
Cn1cc(-c2ccnc3c2C(=O)N(CCC2CCN(C[C@](O)(Cn4cncn4)c4ccc(F)cc4F)CC2)C3)c(-c2ccc(F)cc2)n1 (single isomer, unassigned) [Compound I-248] | 4.69
Cn1cc(-c2ccnc3c2C(=O)N(CC(O)(Cn2ccnc2)c2ccc(F)cc2F)C3)c(-c2ccc(F)cc2)n1 (stereo not drawn) [Compound I-1, 6-(2-(2,4-difluorophenyl)-2-hydroxy-3-(1H-imidazol-1-yl)propyl)-4-(3-(4-fluorophenyl)-1-methyl-1H-pyrazol-4-yl)-6,7-dihydro-5H-pyrrolo[3,4-b]pyridin-5-one] | 46.3
CN1Cc2nccc(-c3cn(CCC(O)(Cn4cncn4)c4ccc(F)cc4F)nc3-c3ccc(F)cc3)c2C1=O (stereo not drawn) [Compound I-2, 4-(1-(3-(2,4-difluorophenyl)-3-hydroxy-4-(1H-1,2,4-triazol-1-yl)butyl)-3-(4-fluorophenyl)-1H-pyrazol-4-yl)-6-methyl-6,7-dihydro-5H-pyrrolo[3,4-b]pyridin-5-one] | 107
Cn1cc(-c2ccncc2CNCCC(O)(Cn2cncn2)c2ccc(F)cc2F)c(-c2ccc(F)cc2)n1 (stereo not drawn) [Compound I-3, 2-(2,4-difluorophenyl)-4-(((4-(3-(4-fluorophenyl)-1-methyl-1H-pyrazol-4-yl)pyridin-3-yl)methyl)amino)-1-(1H-1,2,4-triazol-1-yl)butan-2-ol] | 179
Cn1cc(-c2ccncc2CNC2CCN(CC(O)(Cn3cncn3)c3ccc(F)cc3F)CC2)c(-c2ccc(F)cc2)n1 (stereo not drawn) [Compound I-4, 2-(2,4-difluorophenyl)-1-(4-(((4-(3-(4-fluorophenyl)-1-methyl-1H-pyrazol-4-yl)pyridin-3-yl)methyl)amino)piperidin-1-yl)-3-(1H-1,2,4-triazol-1-yl)propan-2-ol] | 178
Cn1cc(-c2ccncc2CNCC(O)(Cn2cncn2)c2ccc(F)cc2F)c(-c2ccc(F)cc2)n1 (stereo not drawn) [Compound I-5, 2-(2,4-difluorophenyl)-1-(((4-(3-(4-fluorophenyl)-1-methyl-1H-pyrazol-4-yl)pyridin-3-yl)methyl)amino)-3-(1H-1,2,4-triazol-1-yl)propan-2-ol] | 335
Cn1cc(-c2ccnc3c2C(=O)N(CC(O)(Cn2cncn2)c2ccc(F)cc2F)C3)c(-c2ccc(F)cc2)n1 (stereo not drawn) [Compound I-6, 6-(2-(2,4-difluorophenyl)-2-hydroxy-3-(1H-1,2,4-triazol-1-yl)propyl)-4-(3-(4-fluorophenyl)-1-methyl-1H-pyrazol-4-yl)-6,7-dihydro-5H-pyrrolo[3,4-b]pyridin-5-one] | 72.7
Nc1nccc(-c2c(-c3ccc(F)cc3)ncn2C2CCN(CC(O)(Cn3ccnn3)c3ccc(F)cc3F)CC2)n1 (stereo not drawn) [Compound I-35, 1-(4-(5-(2-aminopyrimidin-4-yl)-4-(4-fluorophenyl)-1H-imidazol-1-yl)piperidin-1-yl)-2-(2,4-difluorophenyl)-3-(1H-1,2,3-triazol-1-yl)propan-2-ol] | 6.8
Nc1nccc(-c2c(-c3ccc(F)cc3)ncn2C2CCN(CC[C@](O)(Cn3cncn3)c3ccc(F)cc3F)CC2)n1 [Compound I-53, (R)-4-(4-(5-(2-aminopyrimidin-4-yl)-4-(4-fluorophenyl)-1H-imidazol-1-yl)piperidin-1-yl)-2-(2,4-difluorophenyl)-1-(1H-1,2,4-triazol-1-yl)butan-2-ol] | 9.52
Nc1nccc(-c2c(-c3ccc(F)cc3)ncn2C2CCN(CC[C@@](O)(Cn3cncn3)c3ccc(F)cc3F)CC2)n1 [Compound I-55, (S)-4-(4-(5-(2-aminopyrimidin-4-yl)-4-(4-fluorophenyl)-1H-imidazol-1-yl)piperidin-1-yl)-2-(2,4-difluorophenyl)-1-(1H-1,2,4-triazol-1-yl)butan-2-ol] | 8.41
Nc1nccc(-c2c(-c3ccc(F)cc3)ncn2C2CCN(CC(=O)NCC(O)(Cn3cncn3)c3ccc(F)cc3F)CC2)n1 (stereo not drawn) [Compound I-71, 2-(4-(5-(2-aminopyrimidin-4-yl)-4-(4-fluorophenyl)-1H-imidazol-1-yl)piperidin-1-yl)-N-(2-(2,4-difluorophenyl)-2-hydroxy-3-(1H-1,2,4-triazol-1-yl)propyl)acetamide] | 9.33
Nc1nccc(-c2c(-c3ccc(F)cc3)ncn2C2CCN(C(=O)CCNCC(O)(Cn3cncn3)c3ccc(F)cc3F)CC2)n1 (stereo not drawn) [Compound I-77, 1-(4-(5-(2-aminopyrimidin-4-yl)-4-(4-fluorophenyl)-1H-imidazol-1-yl)piperidin-1-yl)-3-((2-(2,4-difluorophenyl)-2-hydroxy-3-(1H-1,2,4-triazol-1-yl)propyl)amino)propan-1-one] | 0.4
O=C(NCC(O)(Cn1cncn1)c1ccc(F)cc1F)c1cccc2c(-c3ccncc3)c(-c3ccc(F)cc3)nn12 (stereo not drawn) [Compound I-151, N-(2-(2,4-difluorophenyl)-2-hydroxy-3-(1H-1,2,4-triazol-1-yl)propyl)-2-(4-fluorophenyl)-3-(pyridin-4-yl)pyrazolo[1,5-a]pyridine-7-carboxamide] | 765
OC(CNCc1ccc2c(-c3ccncc3)c(-c3ccc(F)cc3)nn2c1)(Cn1cncn1)c1ccc(F)cc1F (stereo not drawn) [Compound I-152, 2-(2,4-difluorophenyl)-1-(((2-(4-fluorophenyl)-3-(pyridin-4-yl)pyrazolo[1,5-a]pyridin-6-yl)methyl)amino)-3-(1H-1,2,4-triazol-1-yl)propan-2-ol] | 3.37
Cn1cc(-c2ccncc2COCCC(O)(Cn2cncn2)c2ccc(F)cc2F)c(-c2ccc(F)cc2)n1 (stereo not drawn) [Compound I-233, 2-(2,4-difluorophenyl)-4-((4-(3-(4-fluorophenyl)-1-methyl-1H-pyrazol-4-yl)pyridin-3-yl)methoxy)-1-(1H-1,2,4-triazol-1-yl)butan-2-ol] | 65.9
Nc1nccc(-c2c(-c3ccc(F)cc3)ncn2C2CCN(CCC(=O)NC3CCN(CC(O)(Cn4cncn4)c4ccc(F)cc4F)CC3)CC2)n1 (stereo not drawn) [Compound I-234, 3-(4-(5-(2-aminopyrimidin-4-yl)-4-(4-fluorophenyl)-1H-imidazol-1-yl)piperidin-1-yl)-N-(1-(2-(2,4-difluorophenyl)-2-hydroxy-3-(1H-1,2,4-triazol-1-yl)propyl)piperidin-4-yl)propanamide] | 8.12
Cn1cc(-c2ccncc2COCC[C@](O)(Cn2cncn2)c2ccc(F)cc2F)c(-c2ccc(F)cc2)n1 [Compound I-235, (R)-2-(2,4-difluorophenyl)-4-((4-(3-(4-fluorophenyl)-1-methyl-1H-pyrazol-4-yl)pyridin-3-yl)methoxy)-1-(1H-1,2,4-triazol-1-yl)butan-2-ol] | 107
Cn1cc(-c2ccnc3c2C(=O)N(CC2CCN(C[C@@](O)(Cn4cncn4)c4ccc(F)cc4F)CC2)C3)c(-c2ccc(F)cc2)n1 [Compound I-237, (R)-6-((1-(2-(2,4-difluorophenyl)-2-hydroxy-3-(1H-1,2,4-triazol-1-yl)propyl)piperidin-4-yl)methyl)-4-(3-(4-fluorophenyl)-1-methyl-1H-pyrazol-4-yl)-6,7-dihydro-5H-pyrrolo[3,4-b]pyridin-5-one] | 1.14
O[C@](CNCc1ccc2c(-c3ccncc3)c(-c3ccc(F)cc3)nn2c1)(Cn1cncn1)c1ccc(F)cc1F [Compound I-252, (R)-2-(2,4-difluorophenyl)-1-(((2-(4-fluorophenyl)-3-(pyridin-4-yl)pyrazolo[1,5-a]pyridin-6-yl)methyl)amino)-3-(1H-1,2,4-triazol-1-yl)propan-2-ol] | 2.07
OC(CN1CCC(NCc2ccc3c(-c4ccncc4)c(-c4ccc(F)cc4)nn3c2)CC1)(Cn1cncn1)c1ccc(F)cc1F (stereo not drawn) [Compound I-254, 2-(2,4-difluorophenyl)-1-(4-(((2-(4-fluorophenyl)-3-(pyridin-4-yl)pyrazolo[1,5-a]pyridin-6-yl)methyl)amino)piperidin-1-yl)-3-(1H-1,2,4-triazol-1-yl)propan-2-ol] | 3.09

Each molecule was assayed on CaCi2 (assay: Antifungal sensitivity testing (broth microdilution MIC)). Settings: CaCi2, 96-well broth microdilution, compounds in DMSO.
Format: cell-based
Experimental: Minimum inhibitory concentrations (MICs) were determined in flat bottom, 96-well plate format using a modified broth microdilution protocol as previously described (Singh et al., PLoS Pathog. 5, e1000532 (2009); LaFayette et al., PLoS Pathog. 6, 79-80 (2010)). Compounds were formulated in dimethyl sulfoxide (DMSO, Sigma-Aldrich Co.). Each compound was tested in duplicate in at least two independent experiments.

SMILES | MIC50 [µM]
Nc1nccc(-c2c(-c3ccc(F)cc3)ncn2C2CCN(CC(O)(Cn3cncn3)c3ccc(F)cc3F)CC2)n1 (stereo not drawn) [Compound I-32, 1-(4-(5-(2-aminopyrimidin-4-yl)-4-(4-fluorophenyl)-1H-imidazol-1-yl)piperidin-1-yl)-2-(2,4-difluorophenyl)-3-(1H-1,2,4-triazol-1-yl)propan-2-ol] | > 50
[2H]C([2H])(NCC(O)(Cn1cncn1)c1ccc(F)cc1F)c1ccc2c(-c3ccncc3)c(-c3ccc(F)cc3)nn2c1 (stereo not drawn) [Compound I-261, 2-(2,4-difluorophenyl)-1-(((2-(4-fluorophenyl)-3-(pyridin-4-yl)pyrazolo[1,5-a]pyridin-6-yl)methyl-d2)amino)-3-(1H-1,2,4-triazol-1-yl)propan-2-ol] | 0.195 (≈ 0.109 µg/mL)
OC(Cn1cncn1)(c1ccc(F)cc1F)C(F)(F)c1ccc(-c2ccc(CNCc3ccc4c(-c5ccncc5)c(-c5ccc(F)cc5)nn4c3)cc2)cn1 (stereo not drawn) [Compound I-262, 2-(2,4-difluorophenyl)-1,1-difluoro-1-(5-(4-((((2-(4-fluorophenyl)-3-(pyridin-4-yl)pyrazolo[1,5-a]pyridin-6-yl)methyl)amino)methyl)phenyl)pyridin-2-yl)-3-(1H-1,2,4-triazol-1-yl)propan-2-ol] | 0.293 (≈ 0.222 µg/mL)
